In brackets after ≈: the same amount, converted by molar mass. Like-named read-outs stand apart in the source and are kept apart here.
Assays:
[1] = Kinetic Solubility; type: physicochemical; settings: kinetic from dmso stock, 0.2 to 100 μM, BD Gentest Solubility Scanner
Method: The 10 mM DMSO stock solution of the test compound is serially diluted into a 96-well “DMSO stock dilution plate”. Then Pipette 2 μL from the DMSO stock dilution plate into the “Sample plate” and dilute with 198 µL of the assay media to generate the final concentrations of the test compound ranging from 0.2 to 100 μM. The “Sample plate” is run on a BD Gentest Solubility Scanner.

[2] = test system: HBV; test: HBV DNA Quantification Assay; type: cell-based; settings: Hepatitis B virus
Method: A HepG2 cell line overexpressing the HBV virus attachment receptor sodium-taurocholate cotransporting polypeptide (NTCP) was grown to confluency in DMEM growth medium, Dulbecco's Modified Eagle Medium without sodium pyruvate (Life Technologies, Rockville, Md.) supplemented with 10% FBS (Thermo Scientific, Waltham, Md.), 1% penicillin/streptomycin (Life Technologies, Rockville, Md.) and 2 mM L-glutamine (Life Technologies, Rockville, Md.) in T175 flasks. Cells were infected with HBV AD38 viral particles (Texcell, Frederick, USA) at 4000 genome equivalents per cell. After allowing viral infection to take place for 4 days, the infected cells were harvested from the flasks by trypsinization, washed twice with OptiMEM (Life Technologies, Rockville, Md.) and re-suspended in DMEM containing 2% FBS and 1% DMSO at a density of 0.25E6 cells/ml. Infected cells were seeded on 384 well collagen coated plates (Greiner, Austria) at a density of 20,000 cells/well containing serially diluted compounds of the present disclosure or DMSO (0.5%) in a final volume of 80 μl. The assay plates were incubated for a period of 5 days and the antiviral activity of the test compounds were assayed by detecting the presence of HBV DNA in the culture supernatant using the QuantiGene™ 2.0 nucleic acid quantification kit (Affymetrix, Santa Clara, Calif.).
The culture supernatant was harvested and treated with lysis buffer containing Proteinase K (Affymetrix, Santa Clara, Calif.). The supernatant was incubated with HBV viral DNA specific probes (Affymetrix, Santa Clara, Calif.) for 30 minutes at 55° C. This was followed by addition of 0.2M NaOH for 30 minutes at room temperature to denature the DNA, followed by addition of Neutralization buffer (Affymetrix, Santa Clara, Calif.). The resulting lysed and neutralized supernatant was then added to QuantiGene™ 2.0 384 well plates coated with capture oligonucleotides and incubated overnight at 55° C. The HBV specific probe set consists of Capture Extender oligonucleotides (CE's) and blocking probes. Following the overnight incubation, the wells were incubated for one hour sequentially with a Pre-Amplifier, Amplifier and Labeled probes conjugated to alkaline phosphatase with a wash step between incubations. After the final wash step, the alkaline phosphatase substrate (Luminol APS5) was added and the resulting luminescence signal was read in an EnVision Multilabel Plate Reader (PerkinElmer, Santa Clara, Calif.). The EC50 values were calculated from the fit of the dose-response curves to a four-parameter equation. All EC50 values represent geometric mean values of a minimum of four determinations.

[3] = assay media at pH 1 (composition not named), simulated gastric fluid, pH = 1, read-out: Kinetic Solubility at pH = 1
[4] = assay media at pH 7 (composition not named), aqueous buffer, pH = 7, read-out: Kinetic Solubility at pH = 7
[5] = 120 h, HepG2 cell line overexpressing NTCP infected with HBV AD38 viral particles, HBV DNA in culture supernatant after 5 days, geometric mean of a minimum of four determinations, read-out: EC50
[6] = aqueous buffer, pH = 7, read-out: Kinetic Solubility at pH = 7
[7] = simulated gastric fluid, pH = 1, read-out: Kinetic Solubility at pH = 1

| SMILES | solubility kinetic [1, 3] [µM] | solubility kinetic [1, 4] [µM] | EC50 [2, 5] [nM] | solubility kinetic [1, 6] [µM] | solubility kinetic [1, 7] [µM] | EC50 ([2]; HepG2, 120 h) [nM] |
| --- | --- | --- | --- | --- | --- | --- |
| Cc1c(C(=O)Nc2ccc(F)c(F)c2)c2n(c1C(=O)C(=O)NC1(c3cnn[nH]3)CC(F)(F)C1)[C@@H]1C[C@@H]1C2 [Example 34, (1aR,6aR)-3-(2-((3,3-difluoro-1-(1H-1,2,3-triazol-5-yl)cyclobutyl)amino)-2-oxoacetyl)-N-(3,4-difluorophenyl)-4-methyl-1,1a,6,6a-tetrahydrocyclopropa[a]pyrrolizine-5-carboxamide] | 51.7 (≈ 26.7 µg/mL) | 52.3 (≈ 27 µg/mL) | 14.4 |  |  |  |
| CNC(=O)C1(NC(=O)C(=O)c2c(C)c(C(=O)Nc3ccc(F)c(Cl)c3)c3n2CCC3)CC(F)(F)C1 [Example 35] |  |  | 14.2 | 3.4 (≈ 1.74 µg/mL) | 9.1 (≈ 4.65 µg/mL) |  |
| Cc1c(C(=O)Nc2ccc(F)c(F)c2)c2n(c1C(=O)C(=O)NC1(c3c[nH]nn3)COC1)CCC2 [Example 36, 5-(2-((3-(1H-1,2,3-triazol-4-v)oxetan-3-yl)amino)-2-oxoacetyl)-N-(3,4-difluorophenyl)-6-methyl-2,3-dihydro-1H-pyrrolizine-7-carboxamide] | 63 (≈ 29.6 µg/mL) | 59.9 (≈ 28.2 µg/mL) |  |  |  | 21.4 |
| Cc1c(C(=O)Nc2ccc(F)c(C(F)F)c2)c2n(c1C(=O)C(=O)NC1(c3c[nH]nn3)CC(F)(F)C1)CCC2 [Example 37, 5-(2-((3,3-Difluoro-1-(1H-1,2,3-triazol-4-yl)cyclobutyl)amino)-2-oxoacetyl)-N-(3-(difluoromethyl)-4-fluorophenyl)-6-methyl-2,3-dihydro-1H-pyrrolizine-7-carboxamide] |  |  | 3.6 | 5.2 (≈ 2.79 µg/mL) | 7.1 (≈ 3.81 µg/mL) |  |
| CNC(=O)C1(NC(=O)C(=O)c2c(C)c(C(=O)Nc3ccc(F)c(F)c3)c3n2CCC3)COC1 [Example 38, N-(3,4-difluorophenyl)-6-methyl-5-(2-((3-(methylcarbamoyl)oxetan-3-yl)amino)-2-oxoacetyl)-2,3-dihydro-1H-pyrrolizine-7-carboxamide] |  |  | 87.2 | 86.7 (≈ 39.9 µg/mL) | 88.7 (≈ 40.8 µg/mL) |  |
| Cc1c(C(=O)Nc2ccc(F)c(F)c2)c2n(c1C(=O)C(=O)NC1(c3c[nH]nn3)CC(F)(F)C1)CCC2 [Example 39] |  |  | 2.9 | 66.8 (≈ 33.7 µg/mL) | 66 (≈ 33.3 µg/mL) |  |
| Cc1c(C(=O)Nc2ccc(F)c(F)c2)c2n(c1C(=O)C(=O)NC1(c3c[nH]nn3)CC1)CCC2 [Example 40, 5-(2-((1-(1H-1,2,3-triazol-4-yl)cyclopropyl)amino)-2-oxoacetyl)-N-(3,4-difluorophenyl)-6-methyl-2,3-dihydro-1H-pyrrolizine-7-carboxamide] |  |  | 14.7 | 2.9 (≈ 1.32 µg/mL) | 4.9 (≈ 2.23 µg/mL) |  |
| CNC(=O)C1(NC(=O)C(=O)c2c(C)c(C(=O)Nc3ccc(F)c(C(F)F)c3)c3n2CCC3)CC(F)(F)C1 [Example 41] |  |  | 20.8 | > 100 | > 100 |  |
| CNC(=O)C1(NC(=O)C(=O)c2c(C)c(C(=O)Nc3cc(F)c(F)c(F)c3)c3n2CCC3)CC(F)(F)C1 [Example 42, 5-(2-((3,3-difluoro-1-(methylcarbamoyl)cyclobutyl)amino)-2-oxoacetyl)-6-methyl-N-(3,4,5-trifluorophenyl)-2,3-dihydro-1H-pyrrolizine-7-carboxamide] |  |  | 12.7 | 29.6 (≈ 15.2 µg/mL) | 37.5 (≈ 19.2 µg/mL) |  |
| Cc1c(C(=O)Nc2ccc(F)c(F)c2)c2n(c1C(=O)C(=O)NC1(c3nncs3)CC1)CCC2 [Example 43, 5-(2-((1-(1,3,4-thiadiazol-2-yl)cyclopropyl)amino)-2-oxoacetyl)-N-(3,4-difluorophenyl)-6-methyl-2,3-dihydro-1H-pyrrolizine-7-carboxamide] |  |  | 12.8 | 72.8 (≈ 34.3 µg/mL) | 77.7 (≈ 36.6 µg/mL) |  |
| Cc1c(C(=O)Nc2ccc(F)c(F)c2)c2n(c1C(=O)C(=O)NC1(C(N)=O)CC(F)(F)C1)CCC2 [Example 44, 5-(2-((1-carbamoyl-3,3-difluorocyclobutyl)amino)-2-oxoacetyl)-N-(3,4-difluorophenyl)-6-methyl-2,3-dihydro-1H-pyrrolizine-7-carboxamide] |  |  | 15.2 | 49.8 (≈ 23.9 µg/mL) | 90.3 (≈ 43.4 µg/mL) |  |
| CNC(=O)C1(NC(=O)C(=O)c2c(C)c(C(=O)Nc3ccc(F)cc3)c3n2CCC3)CC(F)(F)C1 [Example 45, 5-(2-((3,3-difluoro-1-(methylcarbamoyl)cyclobutyl)amino)-2-oxoacetyl)-N-(4-fluorophenyl)-6-methyl-2,3-dihydro-1H-pyrrolizine-7-carboxamide] |  |  | 55.9 | 95.3 (≈ 45.4 µg/mL) | 99.9 (≈ 47.6 µg/mL) |  |
| CNC(=O)C1(NC(=O)C(=O)c2c(C)c(C(=O)Nc3ccc(F)c(F)c3)c3n2CCC3)CC(F)(F)C1 [Example 46] |  |  | 22.5 | 88.5 (≈ 43.8 µg/mL) | 84.4 (≈ 41.7 µg/mL) |  |

— US10836769B2, “Substituted pyrrolizine compounds and uses thereof” (Gilead Sciences, Inc., priority 2018, dated 2020)
